Source: article PMC11951083, “Highly Specific Miniaturized Fluorescent Monoacylglycerol Lipase Probes Enable Translational Research” (Journal of the American Chemical Society, 2025)
Where two headings read alike, the source gives them in different places.

Legend:
[1] = target: T1, NanoLuc luciferase MAGL fusion protein (Homo sapiens, UniProt Q99685); assay: Cellular MAGL NanoBRET target engagement assay in live HEK293 cells; format: cell-based
T1 sequence (Q99685 1-303): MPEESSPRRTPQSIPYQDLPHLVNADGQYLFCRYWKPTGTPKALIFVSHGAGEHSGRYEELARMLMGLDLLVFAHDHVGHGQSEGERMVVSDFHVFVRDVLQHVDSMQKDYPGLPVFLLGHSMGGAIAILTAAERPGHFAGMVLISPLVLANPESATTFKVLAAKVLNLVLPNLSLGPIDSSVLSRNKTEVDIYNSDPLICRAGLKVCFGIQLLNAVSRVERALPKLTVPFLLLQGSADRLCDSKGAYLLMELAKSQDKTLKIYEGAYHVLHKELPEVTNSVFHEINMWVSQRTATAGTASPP
Experimental: This assay was performed as first described before.20
Compounds were profiled by a novel cellular MAGL NanoBRET™ Target Engagement assay, which measures the apparent affinity of test compounds by competitive displacement of a Roche -developed Tracer (WO2021058443, Example 2 121, or probe 4a, respectively), reversibly bound to a NanoLuc ® luciferase MAGL fusion protein in cells.
A HEK293A stable cell line expressing NanoLuc_MAGL was established at Roche and assigned as HEK293A_NanoLuc_MAGL clone #43. A fixed concentration of tracer is added to cells expressing the NanoLuc®_MAGL fusion protein to generate a BRET reporter complex. The introduction of competing compounds results in a dose -dependent decrease in NanoBRET™ energy transfer, which allows quantification of the intracellular affinity of the target protein for the test compound.
HEK293A_NanoLuc_MAGL clone #43 cells were cultured in DMEM (Gibco 31966) with 10% FBS and 800 ug/ml G418. The NanoBRET assay was performed by seeding 5000 cells/well in Costar low - volume white 384-well plate in assay buffer (1% FBS in HBSS), followed by adding the tracer (50 nM Example 21 or 100 nM 4a final concentration) and serial dilutions of test compounds. After 2 hours of incubation, Nanoluciferase substrates and extracellular inhibitors were added following the manufacturer's protocol (Promega, #N2520), and the NanoBRET signaling were quantified with the Paradigm (Molecular Devices).

ACE (h) = ACE (h) (Homo sapiens, UniProt P12821); assay: ACE (h); details: read-out: Inhibition ACE (h)
ZAP70 kinase (h) = target: T2, ZAP70 kinase (h) (Homo sapiens, UniProt P43403); assay: ZAP70 kinase (h); details: read-out: Inhibition ZAP70 kinase (h)
T2 sequence (P43403 1-619): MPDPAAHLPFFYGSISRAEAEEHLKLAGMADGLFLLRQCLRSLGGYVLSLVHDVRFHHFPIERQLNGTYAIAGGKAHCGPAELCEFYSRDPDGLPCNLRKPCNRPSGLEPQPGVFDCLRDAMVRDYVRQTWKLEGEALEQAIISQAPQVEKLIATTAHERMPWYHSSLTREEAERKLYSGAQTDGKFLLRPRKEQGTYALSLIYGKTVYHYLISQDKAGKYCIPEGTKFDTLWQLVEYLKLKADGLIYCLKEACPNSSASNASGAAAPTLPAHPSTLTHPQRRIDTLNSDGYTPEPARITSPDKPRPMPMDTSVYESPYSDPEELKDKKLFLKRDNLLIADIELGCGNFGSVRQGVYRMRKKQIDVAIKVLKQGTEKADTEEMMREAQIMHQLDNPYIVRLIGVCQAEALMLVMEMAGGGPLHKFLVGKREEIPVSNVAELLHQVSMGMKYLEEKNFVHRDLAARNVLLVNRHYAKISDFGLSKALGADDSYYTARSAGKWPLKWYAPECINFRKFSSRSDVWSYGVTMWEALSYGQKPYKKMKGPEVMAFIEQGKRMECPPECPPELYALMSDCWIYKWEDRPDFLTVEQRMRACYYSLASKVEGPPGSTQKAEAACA

A3 (h) = target: T3, A3 (h) (Homo sapiens, UniProt P0DMS8); assay: A3 (h) (agonist radioligand); details: read-out: Inhibition A3 (h) (agonist radioligand)
T3 sequence (P0DMS8 1-318): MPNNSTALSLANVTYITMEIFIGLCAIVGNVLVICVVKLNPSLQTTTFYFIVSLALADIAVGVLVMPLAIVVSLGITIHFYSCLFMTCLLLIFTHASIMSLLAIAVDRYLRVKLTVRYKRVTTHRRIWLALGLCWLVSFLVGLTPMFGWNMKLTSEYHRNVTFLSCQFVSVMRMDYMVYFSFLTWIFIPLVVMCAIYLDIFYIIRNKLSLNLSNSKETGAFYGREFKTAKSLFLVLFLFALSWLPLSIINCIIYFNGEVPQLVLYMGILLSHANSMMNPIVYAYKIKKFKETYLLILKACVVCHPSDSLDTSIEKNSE

FP (h) = FP (h) (Homo sapiens, UniProt P43088); assay: FP (h) (agonist radioligand); details: read-out: Inhibition FP (h) (agonist radioligand)
Chain of FP (h) (P43088 whole entry): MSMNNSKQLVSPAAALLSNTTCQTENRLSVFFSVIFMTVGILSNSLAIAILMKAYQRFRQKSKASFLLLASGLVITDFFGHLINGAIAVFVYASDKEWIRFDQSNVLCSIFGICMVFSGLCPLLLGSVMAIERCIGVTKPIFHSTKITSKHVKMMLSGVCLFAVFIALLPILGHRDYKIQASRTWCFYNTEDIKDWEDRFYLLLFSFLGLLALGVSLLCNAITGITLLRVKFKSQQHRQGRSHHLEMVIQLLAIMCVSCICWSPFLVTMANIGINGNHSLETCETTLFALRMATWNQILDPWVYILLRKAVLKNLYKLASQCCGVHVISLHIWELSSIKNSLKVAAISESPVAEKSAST

D1 (h) = D1 (h) (Homo sapiens, UniProt P21728); assay: D1 (h) (antagonist radioligand); details: read-out: Inhibition D1 (h) (antagonist radioligand)
Chain of D1 (h) (P21728 whole entry): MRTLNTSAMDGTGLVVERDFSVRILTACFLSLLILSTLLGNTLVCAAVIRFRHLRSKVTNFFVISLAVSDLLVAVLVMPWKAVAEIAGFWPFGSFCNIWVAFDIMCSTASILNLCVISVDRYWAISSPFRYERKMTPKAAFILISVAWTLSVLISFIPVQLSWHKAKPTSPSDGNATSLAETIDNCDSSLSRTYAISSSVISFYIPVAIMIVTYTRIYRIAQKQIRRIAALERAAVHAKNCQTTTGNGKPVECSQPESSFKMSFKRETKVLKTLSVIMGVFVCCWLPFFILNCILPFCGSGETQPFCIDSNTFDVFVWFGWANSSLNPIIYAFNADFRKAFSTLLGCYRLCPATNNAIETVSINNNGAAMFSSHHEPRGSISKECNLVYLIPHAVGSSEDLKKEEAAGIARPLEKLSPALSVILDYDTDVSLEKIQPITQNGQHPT

H1 (h) = H1 (h) (Homo sapiens, UniProt P35367); assay: H1 (h) (antagonist radioligand); details: read-out: Inhibition H1 (h) (antagonist radioligand)
Chain of H1 (h) (P35367 whole entry): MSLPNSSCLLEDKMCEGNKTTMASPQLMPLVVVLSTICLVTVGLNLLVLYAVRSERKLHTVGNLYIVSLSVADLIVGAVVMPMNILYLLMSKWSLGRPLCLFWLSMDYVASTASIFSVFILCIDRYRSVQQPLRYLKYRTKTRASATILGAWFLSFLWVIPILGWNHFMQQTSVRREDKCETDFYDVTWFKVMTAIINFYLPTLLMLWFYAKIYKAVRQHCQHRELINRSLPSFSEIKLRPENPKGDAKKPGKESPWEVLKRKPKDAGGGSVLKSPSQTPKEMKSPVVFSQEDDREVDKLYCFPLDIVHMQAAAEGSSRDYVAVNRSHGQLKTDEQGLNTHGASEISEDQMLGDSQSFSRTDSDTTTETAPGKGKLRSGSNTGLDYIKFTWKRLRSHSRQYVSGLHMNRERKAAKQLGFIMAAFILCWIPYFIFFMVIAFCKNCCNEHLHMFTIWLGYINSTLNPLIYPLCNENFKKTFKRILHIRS

H2 (h) = H2 (h) (Homo sapiens, UniProt P25021); assay: H2 (h) (antagonist radioligand); details: read-out: Inhibition H2 (h) (antagonist radioligand)
Chain of H2 (h) (P25021 whole entry): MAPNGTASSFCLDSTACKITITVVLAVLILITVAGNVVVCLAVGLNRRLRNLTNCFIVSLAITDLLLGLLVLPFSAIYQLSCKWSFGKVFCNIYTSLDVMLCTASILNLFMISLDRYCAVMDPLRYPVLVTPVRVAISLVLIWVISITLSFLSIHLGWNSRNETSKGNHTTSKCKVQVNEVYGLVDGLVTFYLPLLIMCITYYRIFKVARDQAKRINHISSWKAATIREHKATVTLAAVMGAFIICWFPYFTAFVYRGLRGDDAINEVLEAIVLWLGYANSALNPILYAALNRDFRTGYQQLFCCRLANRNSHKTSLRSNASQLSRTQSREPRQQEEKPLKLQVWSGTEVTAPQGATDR

BZD (central) = BZD (central) (agonist radioligand); details: 10 µM
[2] = target: xanthine oxidase/ superoxide O2- scavenging (Bos taurus, UniProt P80457); assay: xanthine oxidase/ superoxide O2- scavenging; details: read-out: Inhibition xanthine oxidase/ superoxide O2- scavenging
Chain of xanthine oxidase/ superoxide O2- scavenging (P80457 whole entry): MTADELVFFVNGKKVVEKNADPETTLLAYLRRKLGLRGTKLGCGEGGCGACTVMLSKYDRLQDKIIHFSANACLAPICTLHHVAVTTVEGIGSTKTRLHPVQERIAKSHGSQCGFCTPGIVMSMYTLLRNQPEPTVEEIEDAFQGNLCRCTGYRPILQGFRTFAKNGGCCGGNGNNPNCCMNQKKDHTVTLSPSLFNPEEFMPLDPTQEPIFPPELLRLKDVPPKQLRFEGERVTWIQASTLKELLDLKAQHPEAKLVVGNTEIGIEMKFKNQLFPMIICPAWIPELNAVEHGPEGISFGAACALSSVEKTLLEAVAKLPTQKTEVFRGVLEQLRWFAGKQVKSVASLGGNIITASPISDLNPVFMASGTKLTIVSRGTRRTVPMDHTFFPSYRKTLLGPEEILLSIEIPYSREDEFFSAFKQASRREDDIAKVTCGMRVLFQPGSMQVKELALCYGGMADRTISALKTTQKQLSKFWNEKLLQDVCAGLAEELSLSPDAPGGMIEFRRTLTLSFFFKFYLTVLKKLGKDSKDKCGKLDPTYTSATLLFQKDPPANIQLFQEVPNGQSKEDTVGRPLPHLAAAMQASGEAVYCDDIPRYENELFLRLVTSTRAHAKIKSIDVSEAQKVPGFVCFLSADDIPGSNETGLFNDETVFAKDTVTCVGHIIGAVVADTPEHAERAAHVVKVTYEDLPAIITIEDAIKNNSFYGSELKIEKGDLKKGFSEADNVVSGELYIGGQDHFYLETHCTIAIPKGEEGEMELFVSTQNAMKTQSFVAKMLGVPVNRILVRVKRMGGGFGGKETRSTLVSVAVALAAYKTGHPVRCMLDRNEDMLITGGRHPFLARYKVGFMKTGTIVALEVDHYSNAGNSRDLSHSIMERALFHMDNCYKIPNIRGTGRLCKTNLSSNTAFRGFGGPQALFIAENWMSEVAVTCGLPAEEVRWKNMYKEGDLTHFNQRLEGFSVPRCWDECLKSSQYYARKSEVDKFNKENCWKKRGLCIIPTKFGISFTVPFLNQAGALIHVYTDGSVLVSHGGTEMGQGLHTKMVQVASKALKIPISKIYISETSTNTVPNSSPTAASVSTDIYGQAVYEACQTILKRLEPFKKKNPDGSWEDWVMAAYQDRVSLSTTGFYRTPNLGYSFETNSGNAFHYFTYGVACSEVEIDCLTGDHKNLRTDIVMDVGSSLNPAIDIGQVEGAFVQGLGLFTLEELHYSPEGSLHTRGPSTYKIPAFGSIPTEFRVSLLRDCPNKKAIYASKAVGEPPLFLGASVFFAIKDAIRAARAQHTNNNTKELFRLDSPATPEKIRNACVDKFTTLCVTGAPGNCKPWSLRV

5-HT transporter (h) = 5-HT transporter (h) (Homo sapiens, UniProt P31645); assay: 5-HT transporter (h) (antagonist radioligand); details: read-out: Inhibition 5-HT transporter (h) (antagonist radioligand)
Chain of 5-HT transporter (h) (P31645 whole entry): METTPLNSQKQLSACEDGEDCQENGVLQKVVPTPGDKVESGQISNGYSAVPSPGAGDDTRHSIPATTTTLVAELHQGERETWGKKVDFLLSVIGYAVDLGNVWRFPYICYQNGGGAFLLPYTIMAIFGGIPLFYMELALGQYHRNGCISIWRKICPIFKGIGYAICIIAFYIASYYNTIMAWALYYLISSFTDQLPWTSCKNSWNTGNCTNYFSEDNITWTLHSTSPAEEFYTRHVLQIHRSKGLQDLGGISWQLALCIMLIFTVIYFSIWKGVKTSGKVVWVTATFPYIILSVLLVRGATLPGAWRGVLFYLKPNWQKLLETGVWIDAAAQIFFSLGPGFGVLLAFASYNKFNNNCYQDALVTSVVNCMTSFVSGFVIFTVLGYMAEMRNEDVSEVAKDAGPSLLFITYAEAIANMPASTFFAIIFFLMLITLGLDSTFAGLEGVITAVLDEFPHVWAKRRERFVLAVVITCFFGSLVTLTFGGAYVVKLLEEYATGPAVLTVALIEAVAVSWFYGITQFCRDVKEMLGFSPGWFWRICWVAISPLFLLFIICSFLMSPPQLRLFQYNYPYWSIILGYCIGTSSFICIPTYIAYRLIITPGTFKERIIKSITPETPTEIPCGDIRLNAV

[3] = target: N neuronal alpha4beta2 (h) (Homo sapiens, UniProt P17787+P43681); assay: N neuronal alpha4beta2 (h) (agonist radioligand); details: read-out: Inhibition N neuronal alpha4beta2 (h) (agonist radioligand)
Chain of N neuronal alpha4beta2 (h) (P43681 29-627 limits assumed): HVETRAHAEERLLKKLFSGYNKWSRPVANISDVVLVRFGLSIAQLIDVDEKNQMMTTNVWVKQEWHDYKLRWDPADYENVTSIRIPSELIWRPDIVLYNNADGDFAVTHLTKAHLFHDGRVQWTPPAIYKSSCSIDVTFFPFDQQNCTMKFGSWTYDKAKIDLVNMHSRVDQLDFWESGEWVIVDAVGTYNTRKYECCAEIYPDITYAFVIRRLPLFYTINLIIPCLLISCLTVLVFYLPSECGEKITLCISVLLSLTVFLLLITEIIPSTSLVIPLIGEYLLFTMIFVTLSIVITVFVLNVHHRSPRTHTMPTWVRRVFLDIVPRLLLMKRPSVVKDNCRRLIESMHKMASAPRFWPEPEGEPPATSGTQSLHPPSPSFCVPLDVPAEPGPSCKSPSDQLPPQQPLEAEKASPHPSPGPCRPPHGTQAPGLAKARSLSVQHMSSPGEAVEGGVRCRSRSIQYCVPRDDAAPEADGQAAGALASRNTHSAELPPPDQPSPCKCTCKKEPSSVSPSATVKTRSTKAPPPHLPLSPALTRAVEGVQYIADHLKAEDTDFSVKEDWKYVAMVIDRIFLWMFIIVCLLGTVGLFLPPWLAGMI
Chain of N neuronal alpha4beta2 (h) (P17787 26-502): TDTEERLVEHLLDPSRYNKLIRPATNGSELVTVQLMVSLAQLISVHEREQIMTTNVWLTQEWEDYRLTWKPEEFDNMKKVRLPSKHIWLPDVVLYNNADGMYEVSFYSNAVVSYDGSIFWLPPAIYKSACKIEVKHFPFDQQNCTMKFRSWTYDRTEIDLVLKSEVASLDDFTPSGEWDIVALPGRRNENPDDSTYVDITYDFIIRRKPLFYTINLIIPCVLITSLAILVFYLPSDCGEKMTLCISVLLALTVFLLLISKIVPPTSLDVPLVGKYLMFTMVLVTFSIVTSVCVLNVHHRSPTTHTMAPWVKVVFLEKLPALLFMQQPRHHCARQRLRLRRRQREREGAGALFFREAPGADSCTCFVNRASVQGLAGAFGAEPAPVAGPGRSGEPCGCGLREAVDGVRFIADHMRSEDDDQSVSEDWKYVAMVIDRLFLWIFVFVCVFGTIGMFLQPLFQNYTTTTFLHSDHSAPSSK

[4] = live HEK293 cells, read-out: IC50 nanoBRET

| SMILES | IC50 [1, 4] [nM] | inhibition at 10 µM (ACE (h)) [%] | inhibition at 10 µM (ZAP70 kinase (h)) [%] | inhibition at 10 µM (A3 (h)) [%] | inhibition at 10 µM (FP (h)) [%] | inhibition at 10 µM (D1 (h)) [%] | inhibition at 10 µM (H1 (h)) [%] | inhibition at 10 µM (H2 (h)) [%] | Inhibition BZD (central) (agonist radioligand) (BZD (central)) | inhibition at 10 µM [2] [%] | inhibition at 10 µM (5-HT transporter (h)) [%] | inhibition at 10 µM [3] [%] | IC50 [1] [nM] |
| --- | --- | --- | --- | --- | --- | --- | --- | --- | --- | --- | --- | --- | --- |
| O=C(O[C@H](CO)C(F)(F)F)N1CC2(CC(CC3=C4C=CC=[N+]4[B-](F)(F)n4cccc43)C2)C1 [Compound 1] | 276 | -10.4 | 4.3 | -1.6 | 11.6 | 8.1 | 30.4 | -10.7 | -11,90% | -29.7 | 13 | -18.3 | – |
| O=C(OC(C(F)(F)F)C(F)(F)F)N1CC2(CC(CC3=C4C=CC=[N+]4[B-](F)(F)n4cccc43)C2)C1 [Compound 2] | 720 | -15.8 | -2 | 45 | 6.5 | -1.2 | 5.5 | -18.7 | -27,70% | 1.8 | -4.8 | -1.7 | – |
| O=C(OC(C(F)(F)F)C(F)(F)F)N1CC2(CC(CC3=C4C=CC(c5ccc[nH]5)=[N+]4[B-](F)(F)n4cccc43)C2)C1 [Compound 2a] | – | -4.4 | 2.3 | 34.8 | 4.4 | 6.1 | 4.4 | -48.6 | 0,90% | 7.8 | -12.9 | 4.2 | – |
| O=C1CO[C@H]2CCN(C(=O)N3CC4(CC(CC5=C6C=CC=[N+]6[B-](F)(F)n6cccc65)C4)C3)C[C@H]2N1 [Compound 4] | 196 | – | – | – | – | – | – | – | – | – | – | – | – |
| O=C1CO[C@H]2CCN(C(=O)N3CC4(CC(CC5=C6C=CC(c7ccc[nH]7)=[N+]6[B-](F)(F)n6cccc65)C4)C3)C[C@H]2N1 [Compound 4a] | – | -21.2 | 5.4 | – | 16.3 | 7.5 | 1.3 | -34.8 | -4,10% | 24.1 | -9.6 | -0.6 | – |
| O=C(N1CC2(CC(CC3=C4C=CC=[N+]4[B-](F)(F)n4cccc43)C2)C1)N1CC2(CC(n3cnc(C4CC4)n3)C2)C1 [Compound 5] | – | -21.1 | 6.9 | 17.7 | 10.4 | 7.3 | 51.5 | -1.9 | -16,30% | -16.6 | 56.5 | -16.6 | 85 |
